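Briefly, cells in 96-well plates were exposed to five compound concentrations for 48 h, and endpoints were estimated by linear interpolation. Abbreviation: GI50, concentration required for 50% inhibition of growth.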 Active and inactive are the calls of the source. No stated cut-off is given here; in the data, active = GI50 up to about 1.1 µM and inactive = higher.
Experiments:
Assay in all cases: NCI anticancer screen, dose series, 48 h
[1] = system: 786-0
[2] = system: CCRF-CEM
[3] = system: COLO 205
[4] = system: HCC 2998
[5] = system: HCT-15
[6] = system: HL-60
[7] = system: IGROV-1
[8] = system: KM12
[9] = system: M14
[10] = system: MCF7
[11] = system: MDA-N
[12] = system: NCI-H226
[13] = system: NCI/ADR-RES
[14] = system: OVCAR-4
[15] = system: SK-OV-3
[16] = system: SN12C
[17] = system: SNB-75
[18] = system: T47D
[19] = system: HOP-92

SMILES | GI50 [1] | GI50 [2] | GI50 [3] | GI50 [4] | GI50 [5] | GI50 [6] | GI50 [7] | GI50 [8] | GI50 [9] | GI50 [10] | GI50 [11] | GI50 [12] | GI50 [13] | GI50 [14] | GI50 [15] | GI50 [16] | GI50 [17] | GI50 [18] | GI50 [19]
C=CCOC(=O)Cn1cc(C)c(=O)[nH]c1=O | > 100 µM (inactive) | > 100 µM (inactive) | > 100 µM (inactive) | > 100 µM (inactive) | > 100 µM | > 100 µM (inactive) | > 100 µM (inactive) | > 100 µM (inactive) | > 100 µM (inactive) | > 100 µM (inactive) | > 100 µM (inactive) | > 100 µM (inactive) | > 100 µM (inactive) | > 100 µM (inactive) | > 100 µM (inactive) | > 100 µM (inactive) | > 100 µM (inactive) | > 100 µM (inactive) | 
Oc1cc(N2CCCC2)ccc1/C=N/N1C(=S)N(c2ccccc2)C(=N\c2ccccc2)/C1=N/c1ccccc1 | > 100 µM (inactive) |  | > 100 µM (inactive) | > 100 µM (inactive) | > 100 µM |  | > 100 µM (inactive) | > 100 µM (inactive) | 34.2 µM (inactive) | 70.1 µM (inactive) | > 100 µM (inactive) | 58.6 µM (inactive) | > 100 µM (inactive) |  | 99.8 µM (inactive) | > 100 µM (inactive) |  | > 100 µM (inactive) | 63.2 µM (inactive)
COC(=O)c1ccc2cc(O)ccc2c1 | 89.9 µM (inactive) | > 100 µM (inactive) | > 100 µM (inactive) | > 100 µM (inactive) | > 100 µM |  | 75.7 µM (inactive) | 39.9 µM (inactive) | 72.1 µM (inactive) | 55 µM (inactive) | 78.9 µM (inactive) | 60.1 µM (inactive) | 47.9 µM (inactive) | > 100 µM (inactive) | > 100 µM (inactive) | > 100 µM (inactive) |  | 56.4 µM (inactive) | > 100 µM (inactive)
COc1c2cc(C(C)(C)C)cc1Cc1cccc(c1O)Cc1cc(C(C)(C)C)cc(c1OC)Cc1cccc(c1O)Cc1cc(C(C)(C)C)cc(c1OC)Cc1cccc(c1O)C2 | > 100 µM (inactive) | > 10 µM (inactive) | > 100 µM (inactive) | > 100 µM (inactive) | > 100 µM | > 100 µM (inactive) |  | > 100 µM (inactive) | 55.6 µM (inactive) | > 100 µM (inactive) | > 100 µM (inactive) |  | > 100 µM (inactive) |  |  | > 100 µM (inactive) | > 100 µM (inactive) | > 100 µM (inactive) | > 100 µM (inactive)
CC(=O)Oc1ccc(/C=C/C(=O)O[C@@H](C)[C@H](C)OC(=O)/C=C/c2ccc(OC(C)=O)c(OC(C)=O)c2)cc1OC(C)=O | 12.1 µM (inactive) | 3.94 µM (inactive) | 29.5 µM (inactive) | 11.4 µM (inactive) | 6.31 µM |  | 5.75 µM (inactive) | 9.46 µM (inactive) | 11.4 µM (inactive) | 20 µM (inactive) | 11.1 µM (inactive) |  | 22.2 µM (inactive) | 28.7 µM (inactive) | 19.5 µM (inactive) | 19.6 µM (inactive) | 20.1 µM (inactive) | 13 µM (inactive) | 20.2 µM (inactive)
Cc1nc2ccc(Cl)cc2c2c1CCN2c1ccc(F)cc1 | 11.8 µM (inactive) | 11.6 µM (inactive) | 9.95 µM (inactive) | 23.6 µM (inactive) | 36 µM | 17.1 µM (inactive) | 9.42 µM (inactive) | 25.8 µM (inactive) | 16.5 µM (inactive) | 12.2 µM (inactive) | 7 µM (inactive) | 16.2 µM (inactive) | 13 µM (inactive) | 5.9 µM (inactive) | > 100 µM (inactive) | 26.5 µM (inactive) | 0.0266 µM (active) | 36.1 µM (inactive) | 
CN(C)/N=N/c1ccc2[nH]c(=O)[nH]c2c1 | > 100 µM (inactive) | 62.2 µM (inactive) | > 100 µM (inactive) | > 100 µM (inactive) | > 100 µM | 19.2 µM (inactive) | > 100 µM (inactive) | > 100 µM (inactive) | > 100 µM (inactive) | > 100 µM (inactive) | > 100 µM (inactive) | > 100 µM (inactive) | > 100 µM (inactive) | > 100 µM (inactive) | > 100 µM (inactive) | > 100 µM (inactive) | > 100 µM (inactive) | > 100 µM (inactive) | 
COc1cc2c(c(OC)c1OC)-c1ccc(SC)c(=O)cc1[C@@H](OC(=O)c1ccncc1)CC2 | < 0.01 µM (active) | < 0.01 µM (active) | < 0.01 µM (active) | < 0.01 µM (active) | < 0.01 µM |  | < 0.01 µM (active) | < 0.01 µM (active) | < 0.01 µM (active) | < 0.01 µM (active) | < 0.01 µM (active) | < 0.01 µM (active) | < 0.01 µM (active) | 27 µM (inactive) | 0.0165 µM (active) |  | < 0.01 µM (active) | > 61.7 µM (inactive) | 30.1 µM (inactive)
CC(C)[Si](CC1=CCCCC12C(=O)N(COCC[Si](C)(C)C)c1ccccc12)(C(C)C)C(C)C (stereo not given) | > 100 µM (inactive) | 0.448 µM (active) | > 100 µM (inactive) | 65.6 µM (inactive) | > 100 µM |  | > 100 µM (inactive) | > 100 µM (inactive) | > 100 µM (inactive) | 61 µM (inactive) | > 100 µM (inactive) | > 100 µM (inactive) | > 100 µM (inactive) | > 100 µM (inactive) | > 100 µM (inactive) |  | > 100 µM (inactive) | 33.7 µM (inactive) | 89.3 µM (inactive)
CC1(C)C2CC3C(C)(C2)C31c1cc(Cl)ccc1N (stereo not given) | 15.3 µM (inactive) | 16 µM (inactive) | 19.1 µM (inactive) | 15 µM (inactive) | 10.9 µM |  | 14.5 µM (inactive) | 14.4 µM (inactive) | 12.4 µM (inactive) | 13.4 µM (inactive) | 12.2 µM (inactive) | 17.8 µM (inactive) | 14.7 µM (inactive) | 15.2 µM (inactive) | 15.5 µM (inactive) | 14.4 µM (inactive) | 11.9 µM (inactive) | 12 µM (inactive) | 13.3 µM (inactive)
CC(C)(C)c1ccc(O)c(Br)c1 | > 100 µM (inactive) | > 100 µM (inactive) | > 100 µM (inactive) | 51.8 µM (inactive) | > 100 µM | 36.6 µM (inactive) | 19.1 µM (inactive) | 63.5 µM (inactive) | > 100 µM (inactive) | > 100 µM (inactive) | > 100 µM (inactive) | > 100 µM (inactive) | > 100 µM (inactive) | > 100 µM (inactive) | > 100 µM (inactive) | > 100 µM (inactive) | 15.1 µM (inactive) | 11.5 µM (inactive) | 
CCN(C(=O)N[C@@H](Cc1ccccc1)C(=O)N[C@@H](CC(C)C)C(=O)OC)c1ccccc1 | 19.8 µM (inactive) | 19.3 µM (inactive) | 18 µM (inactive) | 30.8 µM (inactive) | 15.8 µM |  | 17 µM (inactive) | 29.4 µM (inactive) | 8.24 µM (inactive) | 24 µM (inactive) | 69.3 µM (inactive) | 19.5 µM (inactive) | 26.5 µM (inactive) | 28.1 µM (inactive) | 40.6 µM (inactive) | 16 µM (inactive) |  | 77.6 µM (inactive) | 22.2 µM (inactive)
